For test [1], the system named is Cabbage Looper (Trichoplusia ni) ("CL"), second instar larvae. Put plainly: Bioassay on cabbage looper (CL), 128-well diet tray assay. Format: in vivo. The conditions noted are these: for CL rating: Table ABC, species CL, C = not tested, D = no activity noticed; for pest or weed control at 50 µg/cm2: Trichoplusia ni, read-out: CL rating. The method, boiled down:
(§1)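 Each value represents average percent mortality from eight wells. Larvae were kept in clear-covered trays at 25° C. for five to seven days on a 14-hour light, 10-hour dark schedule before scoring.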

In test [2] the test system is Beet Armyworm (Spodoptera exigua) ("BAW"), second instar larvae. The experiment in a line: Bioassay on beet armyworm (BAW), 128-well diet tray assay. It is filed as in vivo. The conditions noted are these: for BAW rating: Table ABC, species BAW, C = not tested, D = no activity noticed; for pest or weed control at 50 µg/cm2: Spodoptera exigua, read-out: BAW rating. The method, boiled down:
as §1

Drawing on patent US20230077362A1 (CORTEVA AGRISCIENCE LLC, priority 2019, published 2023), this text covers CL rating, BAW rating and pest or weed control for 26 compounds.

On to `COc1cc(COCC(F)(F)F)c(N2C(=O)CS/C2=N\C(=O)Nc2ccc(-c3ncn(-c4ccc(S(F)(F)(F)(F)F)cc4)n3)cc2F)cc1OC` [Compound J561], for which the CL rating entry in test [1] was “A (50-100)”. For the same compound, in test [2], the BAW rating result is “A (50-100)”.

`Cc1ccc(Cc2ccccc2)c(N2C(=O)CS/C2=N\C(=O)Nc2ccc(-c3ncn(-c4ccc(C(F)(F)F)cc4)n3)cc2F)c1` [Compound J562, (Z)-1-(3-(2-Benzyl-5-methylphenyl)-4-oxothiazolidin-2-ylidene)-3-(2-fluoro-4-(1-(4-(trifluoromethyl)phenyl)-1H-1,2,4-triazol-3-yl)phenyl)urea]: the pest or weed control at 50 µg/cm2 in test [1] and in test [2] was 50 to 100% in each case.

Regarding `Cc1ccc(Cc2ccccc2)c(N2C(=O)CS/C2=N\C(=O)Nc2ccc(-c3ncn(-c4ccc(S(F)(F)(F)(F)F)cc4)n3)cc2F)c1` [Compound J563, (Z)-1-(3-(2-Benzyl-5-methylphenyl)-4-oxothiazolidin-2-ylidene)-3-(2-fluoro-4-(1-(4-(pentafluoro-λ^6-sulfaneyl)phenyl)-1H-1,2,4-triazol-3-yl)phenyl)urea], the pest or weed control at 50 µg/cm2 in test [1] and in test [2] was 50 to 100% each time.

Consider `COc1ccc(COCC(F)(F)F)c(N2C(=O)CS/C2=N\C(=O)Nc2ccc(-c3ncn(-c4ccc(OC(F)(F)F)cc4)n3)cc2F)c1` [Compound J564], for which, in test [1], the CL rating entry is listed as “A (50-100)”. The BAW rating result in test [2] was “A (50-100)”.

With `COc1ccc(COCC(F)(F)F)c(N2C(=O)CS/C2=N\C(=O)Nc2ccc(-c3ncn(-c4ccc(S(F)(F)(F)(F)F)cc4)n3)cc2F)c1` [Compound J565], the CL rating result in test [1] was “A (50-100)”. Further, the BAW rating result in test [2] is “A (50-100)”.

For `Cc1cccc(N2C(=O)CS/C2=N\C(=O)Nc2ccc(-c3ncn(-c4ccc(OC(F)(F)F)cc4)n3)cc2F)c1COCC(F)(F)F` [Compound J566], the CL rating entry in test [1] was “A (50-100)”. In addition, the BAW rating result in test [2] is listed as “A (50-100)”.

For the compound `Cc1cccc(N2C(=O)CS/C2=N\C(=O)Nc2ccc(-c3ncn(-c4ccc(S(F)(F)(F)(F)F)cc4)n3)cc2F)c1COCC(F)(F)F` [Compound J567], the CL rating result in test [1] was “A (50-100)”. Also, in test [2], the BAW rating entry is reported as “A (50-100)”.

For the compound `Cc1ccc(COCc2cccc(F)c2)c(N2C(=O)CS/C2=N\C(=O)Nc2ccc(-c3ncn(-c4ccc(OC(F)(F)F)cc4)n3)cc2F)c1` [Compound J568, (Z)-1-(2-fluoro-4-(1-(4-(trifluoromethoxy)phenyl)-1H-1,2,4-triazol-3-yl)phenyl)-3-(3-(2-(((3-fluorobenzyl)oxy)methyl)-5-methylphenyl)-4-oxothiazolidin-2-ylidene)urea], the pest or weed control at 50 µg/cm2 in test [1] and in test [2] was 50 to 100% in each case.

Turning to `Cc1ccc(COCC(F)(F)F)c(N2C(=O)CS/C2=N\C(=O)Nc2ccc(-c3ncn(-c4ccc(S(F)(F)(F)(F)F)cc4)n3)cc2C#N)c1` [Compound J569, (Z)-1-(2-Cyano-4-(1-(4-(pentafluoro-λ^6-sulfaneyl)phenyl)-1H-1,2,4-triazol-3-yl)phenyl)-3-(3-(5-methyl-2-((2,2,2-trifluoroethoxy)methyl)phenyl)-4-oxothiazolidin-2-ylidene)urea], the pest or weed control at 50 µg/cm2 in test [1] and in test [2] was 50 to 100% throughout.

Take `Cc1ccc(COCc2ccccc2)c(N2C(=O)CS/C2=N\C(=O)Nc2ccc(-c3ncn(-c4ccc(OC(F)(F)F)cc4)n3)cc2F)c1` [Compound J571, (Z)-1-(3-(2-((Benzyloxy)methyl)-5-methylphenyl)-4-oxothiazolidin-2-ylidene)-3-(2-fluoro-4-(1-(4-(trifluoromethoxy)phenyl)-1H-1,2,4-triazol-3-yl)phenyl)urea]: the pest or weed control at 50 µg/cm2 in test [1] and in test [2] was 50 to 100% throughout.

Take `Cc1cc(-c2ncn(-c3ccc(OC(F)(F)F)cc3)n2)ccc1NC(=O)/N=C1\SCC(=O)N1c1cccc(C)c1COCC(F)(F)F` [Compound J576]: the CL rating result in test [1] is “A (50-100)”. The BAW rating result in test [2] is given as “A (50-100)”.

In the case of `COc1ccc(COCC(F)(F)F)c(N2C(=O)CS/C2=N\C(=O)Nc2ccc(-c3ncn(-c4ccc(S(F)(F)(F)(F)F)cc4)n3)cc2C)c1` [Compound J577], the CL rating entry in test [1] is on record as “A (50-100)”. Besides, in test [2], the BAW rating entry is “A (50-100)”.

Regarding `Cc1cc(-c2ncn(-c3ccc(S(F)(F)(F)(F)F)cc3)n2)ccc1NC(=O)/N=C1\SCC(=O)N1c1cccc(C)c1COCC(F)(F)F` [Compound J578], in test [1], the CL rating entry is “A (50-100)”. Besides, in test [2], the BAW rating result is given as “A (50-100)”.

Take `Cc1cc(-c2ncn(-c3ccc(C(F)(F)F)cc3)n2)ccc1NC(=O)/N=C1\SCC(=O)N1c1cccc(C)c1COCC(F)(F)F` [Compound J579]: the CL rating result in test [1] is reported as “A (50-100)”. Further, the BAW rating result in test [2] is on record as “A (50-100)”.

As for `COc1ccc(COCC(F)(F)F)c(N2C(=O)CS/C2=N\C(=O)Nc2ccc(-c3ncn(-c4ccc(C(F)(F)F)cc4)n3)cc2C)c1` [Compound J580], the CL rating entry in test [1] is “A (50-100)”. The BAW rating result in test [2] is on record as “A (50-100)”.

As for `COc1ccc(COCC(F)(F)F)c(N2C(=O)CS/C2=N\C(=O)Nc2ccc(-c3ncn(-c4ccc(C(F)(F)F)cc4)n3)cc2F)c1` [Compound J581], the CL rating result in test [1] was “A (50-100)”. For the same compound, in test [2], the BAW rating entry was “A (50-100)”.

`CCOCc1ccc(C)cc1N1C(=O)CS/C1=N\C(=O)Nc1ccc(-c2ncn(-c3ccc(S(F)(F)(F)(F)F)cc3)n2)cc1C#N` [Compound J582]: the pest or weed control at 50 µg/cm2 in test [1] and in test [2] was 50 to 100% each time.

Take `CCCc1ccc(C)cc1N1C(=O)CS/C1=N\C(=O)Nc1ccc(-c2ncn(-c3ccc(S(F)(F)(F)(F)F)cc3)n2)cc1C#N` [Compound J583, (Z)-1-(2-Cyano-4-(1-(4-(pentafluoro-λ^6-sulfaneyl)phenyl)-1H-1,2,4-triazol-3-yl)phenyl)-3-(3-(5-methyl-2-propylphenyl)-4-oxothiazolidin-2-ylidene)urea]: the pest or weed control at 50 µg/cm2 in test [1] and in test [2] was 50 to 100% in each case.

Consider `Cc1ccc(OCCC(F)(F)F)c(N2C(=O)CS/C2=N\C(=O)Nc2ccc(-c3ncn(-c4ccc(S(F)(F)(F)(F)F)cc4)n3)cc2C#N)c1` [Compound J584, (Z)-1-(2-Cyano-4-(1-(4-(pentafluoro-λ^6-sulfaneyl)phenyl)-1H-1,2,4-triazol-3-yl)phenyl)-3-(3-(5-methyl-2-(3,3,3-trifluoropropoxy)phenyl)-4-oxothiazolidin-2-ylidene)urea], for which the pest or weed control at 50 µg/cm2 in test [1] and in test [2] was 50 to 100% throughout.

For `CC(C)c1ccc(N(C)C)cc1N1C(=O)CS/C1=N\C(=O)Nc1ccc(-c2ncn(-c3ccc(S(F)(F)(F)(F)F)cc3)n2)cc1C#N` [Compound J585], in test [1], the CL rating entry is “A (50-100)”. In test [2], the BAW rating result is reported as “A (50-100)”.

Turning to `CCOC(C)c1ccc(C)cc1N1C(=O)CS/C1=N\C(=O)Nc1ccc(-c2ncn(-c3ccc(S(F)(F)(F)(F)F)cc3)n2)cc1C#N` (stereo not shown) [Compound J586, (Z)-1-(2-Cyano-4-(1-(4-(pentafluoro-λ^6-sulfaneyl)phenyl)-1H-1,2,4-triazol-3-yl)phenyl)-3-(3-(2-(1-ethoxyethyl)-5-methylphenyl)-4-oxothiazolidin-2-ylidene)urea], the pest or weed control at 50 µg/cm2 in test [1] and in test [2] was 50 to 100% throughout.

`Cc1cc(COCC(F)(F)F)c(N2C(=O)CS/C2=N\C(=O)Nc2ccc(-c3ncn(-c4ccc(S(F)(F)(F)(F)F)cc4)n3)cc2C#N)cc1C` [Compound J587, (Z)-1-(2-Cyano-4-(1-(4-(pentafluoro-λ^6-sulfaneyl)phenyl)-1H-1,2,4-triazol-3-yl)phenyl)-3-(3-(4,5-dimethyl-2-((2,2,2-trifluoroethoxy)methyl)phenyl)-4-oxothiazolidin-2-ylidene)urea]: the pest or weed control at 50 µg/cm2 in test [1] and in test [2] was 50 to 100% in each case.

Consider `COc1cc(COCC(F)(F)F)c(N2C(=O)CS/C2=N\C(=O)Nc2ccc(-c3ncn(-c4ccc(S(F)(F)(F)(F)F)cc4)n3)cc2C#N)cc1OC` [Compound J588, (Z)-1-(2-Cyano-4-(1-(4-(pentafluoro-λ^6-sulfaneyl)phenyl)-1H-1,2,4-triazol-3-yl)phenyl)-3-(3-(4,5-dimethoxy-2-((2,2,2-trifluoroethoxy)methyl)phenyl)-4-oxothiazolidin-2-ylidene)urea], for which the pest or weed control at 50 µg/cm2 in test [1] and in test [2] was 50 to 100% each time.

Turning to `Cc1ccc(C(C)C)c(N2C(=O)CS/C2=N\C(=O)Nc2ccc(-c3cn(-c4ccc(S(F)(F)(F)(F)F)cc4)cn3)cc2F)c1` [Compound J589, (Z)-1-(2-fluoro-4-(1-(4-(pentafluoro-λ^6-sulfaneyl)phenyl)-1H-imidazol-4-yl)phenyl)-3-(3-(2-isopropyl-5-methylphenyl)-4-oxothiazolidin-2-ylidene)urea], the pest or weed control at 50 µg/cm2 in test [1] and in test [2] was 50 to 100% each time.

Regarding `CCCc1ccc(C)cc1N1C(=O)CS/C1=N\C(=O)Nc1ccc(-c2cn(-c3ccc(S(F)(F)(F)(F)F)cc3)cn2)cc1F` [Compound J590, (Z)-1-(2-Fluoro-4-(1-(4-(pentafluoro-λ^6-sulfaneyl)phenyl)-1H-imidazol-4-yl)phenyl)-3-(3-(5-methyl-2-propylphenyl)-4-oxothiazolidin-2-ylidene)urea], the pest or weed control at 50 µg/cm2 in test [1] and in test [2] was 50 to 100% each time.

For `COC(C)c1ccc(C)cc1N1C(=O)CS/C1=N\C(=O)Nc1ccc(-c2cn(-c3ccc(S(F)(F)(F)(F)F)cc3)cn2)cc1F` (stereo not shown) [Compound J591, (Z)-1-(2-Fluoro-4-(1-(4-(pentafluoro-λ^6-sulfaneyl)phenyl)-1H-imidazol-4-yl)phenyl)-3-(3-(2-(1-methoxyethyl)-5-methylphenyl)-4-oxothiazolidin-2-ylidene)urea], the pest or weed control at 50 µg/cm2 in test [1] and in test [2] was 50 to 100% in each case.
